The values below come from patent US20250230138A1, “COMPOUNDS HAVING A T-STRUCTURE FORMED BY AT LEAST FOUR CYCLES FOR USE IN THE TREATMENT OF CANCER AND OTHER INDICATIONS” (TheRas, Inc., priority 2022, published 2025).

Like-named read-outs stand apart in the source and are kept apart here.

The target of assay [1] is Cys242 in human PIK3CA (157-299) (Homo sapiens (Human), UniProt P42336). In words: Covalent modification assay using MALDI-TOF MS. Type of assay: biochemical. Particulars: 4 h reaction time point. The procedure, abridged:
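PIK3CA (157-299) at 3.33 μM or 1 μM in 20 mM HEPES, 150 mM NaCl, 2 mM MgCl2, pH 7.3 was incubated with compound (from 10 mM DMSO stocks) in the dark at room temperature for 15 min, 30 min, 2 h or 4 h. Linear-mode MALDI-TOF peak heights gave percent modification.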

In a further assay the test system is pAKT in BT474 cells. In words: Cell-based pAKT HTRF assay in BT474 cells. Conditions: BT474 cells, 4 hr incubation, read-out: pAKT inhibition IC50 in BT474 cells. The method, boiled down:
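The HTRF signal (excitation 320 nm, emission 615 nm) came from d2/Eu Cryptate antibodies added to lysates and incubated 4–24 h at room temperature. Those lysates were taken from cells treated for 4 hr with compound, top concentration 3 μM, in 0.25% DMSO.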
(In TR-FRET formats the signal depends on donor and acceptor labels being close together.)

Where [2] appears, read: 3.33 μM protein target, 1:7.5 protein to compound ratio (compounds 1-852).
Setting [3] is: 1 μM protein target, 1:5 protein to compound ratio (compounds 853-1279).

Cys242 in human PIK3CA (157-299), sequence (P42336 157-299): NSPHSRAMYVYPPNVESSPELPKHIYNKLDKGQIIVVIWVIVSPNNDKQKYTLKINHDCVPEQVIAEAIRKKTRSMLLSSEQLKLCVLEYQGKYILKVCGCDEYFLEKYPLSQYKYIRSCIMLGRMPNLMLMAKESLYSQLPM

A word on the IC50: it is the concentration that inhibits the measured activity by half. Take `C=CC(=O)N1CCc2ccc(-c3nc(-c4cnc5c(c4)CNC(=O)C5)c4ccsc4c3-c3c(F)cc(F)cc3OCCOC)cc2C1` [Compound 579, (R)-3-(6-(2-acryloyl-1,2,3,4-tetrahydroisoquinolin-7-yl)-7-(2,4-difluoro-6-(2-methoxyethoxy)phenyl)thieno[3,2-c]pyridin-4-yl)-5,8-dihydro-1,6-naphthyridin-7(6H)-one]: the “% of modification” value in assay [1] (setting [2]) is on record as “D (percent of modification <25%)”. Moreover, the IC50 in the assay with pAKT in BT474 cells (Compounds 10-999) was in the range of 1000 to 3000 nM.

`C=CC(=O)N1CCc2nc(-c3nc(-c4cnc5c(c4)CN(C)CC5)c4ccsc4c3-c3c(F)cc(F)cc3OC(C)C)sc2C1` [Compound 309]: the “% of modification” value in assay [1] (setting [2]) is reported as “A (percent of modification of PIK3CA protein ≥75%)”. Further, the IC50 with pAKT in BT474 cells (Compounds 10-999) is below 100 nM.

Take `C#CC(=O)N1CCn2nc(-c3nc(-c4ccc5c(cnn5C)c4)c4ccsc4c3-c3c(F)cc(F)cc3OCCOC)cc2[C@H]1C` [Compound 1229]: the “% of modification” value in assay [1] (setting [3]) is on record as “A (percent of modification of PIK3CA protein ≥75%)”. For the same compound, the IC50 in the assay on pAKT in BT474 cells (Compounds 1000-1279) was above 1000 nM.

For the compound `C=CC(=O)N1Cc2cc(-c3nc(-c4ccnc(N(C)C)c4)c4ccsc4c3-c3c(F)cc(F)cc3OCCOC)nn2C[C@H]1C` [Compound 839], the “% of modification” value in assay [1] (setting [2]) is on record as “A (percent of modification of PIK3CA protein ≥75%)”. Moreover, the 50% inhibitory concentration (IC50) with pAKT in BT474 cells (Compounds 10-999) is below 100 nM.

Take `C=CC(=O)N1CC(n2cc(-c3nc(-c4ccc(S(N)(=O)=O)cc4)c4ccsc4c3-c3ccc(F)cc3OCCOC)cn2)C1` [Compound 238]: the “% of modification” value in assay [1] (setting [2]) was “A (percent of modification of PIK3CA protein ≥75%)”. Besides, the IC50 with pAKT in BT474 cells (Compounds 10-999) was below 100 nM.

On to `C=CC(=O)N1Cc2cc(-c3nc(-c4ccc5nncn5c4)c4ccsc4c3-c3c(F)cc(F)cc3OCC(C)O)nn2C(C)C1` (stereo not shown) [Compound 643], for which, in assay [1] (setting [2]), the “% of modification” value was “A (percent of modification of PIK3CA protein ≥75%)”. In the assay with pAKT in BT474 cells (Compounds 10-999), the concentration for half-maximal inhibition (IC50) is below 100 nM.

Regarding `C=CC(=O)N1CCc2nc(-c3nc(-c4ccc5c(c4)CCNC5)c4ccsc4c3-c3ccc(F)cc3OC(F)F)sc2C1` [Compound 215], in assay [1] (setting [2]), the “% of modification” value is given as “A (percent of modification of PIK3CA protein ≥75%)”. In addition, in the assay with pAKT in BT474 cells (Compounds 10-999), the IC50 was in the range of 100 to 1000 nM.

For `C=CC(=O)N1CCn2nc(-c3nc(-c4cccc(C(=O)N5CC(N(C)C)C5)c4)c4ccsc4c3-c3c(F)cc(F)cc3OCCOC)cc2C1C` (stereo not shown) [Compound 1142], in assay [1] (setting [3]), the “% of modification” value is “A (percent of modification of PIK3CA protein ≥75%)”. For the same compound, the IC50 with pAKT in BT474 cells (Compounds 1000-1279) is below 100 nM.

Regarding `C=CC(=O)N1CCc2nc(-c3nc(-c4ccc(N)nc4)c4ccsc4c3-c3ccc(F)cc3OCCOC)sc2C1` [Compound 142], the “% of modification” value in assay [1] (setting [2]) is recorded as “A (percent of modification of PIK3CA protein ≥75%)”. The IC50 in the assay with pAKT in BT474 cells (Compounds 10-999) was below 100 nM.

With `C=CC(=O)N1CCn2nc(-c3nc(-c4ccc5c(c4)CN(C)C(=O)C54CC4)c4ccsc4c3-c3c(F)cc(F)cc3OCCO)cc2[C@H]1C` [Compound 1133], the “% of modification” value in assay [1] (setting [3]) is given as “A (percent of modification of PIK3CA protein ≥75%)”. The IC50 with pAKT in BT474 cells (Compounds 1000-1279) was below 100 nM.

Regarding `C=CC(=O)N1CC(n2cc(-c3nc(N4CC5(CCNCC5)C4)c4ccsc4c3-c3ccc(F)cc3OCCOC)cn2)C1` [Compound 138], in assay [1] (setting [2]), the “% of modification” value is “A (percent of modification of PIK3CA protein ≥75%)”. The 50% inhibitory concentration (IC50) in the assay on pAKT in BT474 cells (Compounds 10-999) fell in the range of 100 to 1000 nM.

With `C=CC(=O)N1CCc2nc(-c3nc(-c4ccc5c(c4)CCN(C)C5)c4ccsc4c3-c3c(F)cc(F)cc3OCC)sc2C1` [Compound 438], the “% of modification” value in assay [1] (setting [2]) was “A (percent of modification of PIK3CA protein ≥75%)”. Besides, the half-maximal inhibitory concentration (IC50) in the assay on pAKT in BT474 cells (Compounds 10-999) lay within 100 to 1000 nM.

As to `C=CC(=O)N1CCc2nc(-c3nc(-c4ccc(=O)n(C)c4)c4ccsc4c3-c3c(F)cc(F)cc3OC(C)C)sc2C1` [Compound 348], in assay [1] (setting [2]), the “% of modification” value was “A (percent of modification of PIK3CA protein ≥75%)”. In addition, the IC50 with pAKT in BT474 cells (Compounds 10-999) is below 100 nM.

Turning to `C=CC(=O)N1Cc2cc(-c3nc(-c4ccc5cn(C)nc5c4)c4ccsc4c3-c3c(F)cc(F)cc3OCCOC)nn2[C@@H](C)C1` [Compound 742], the “% of modification” value in assay [1] (setting [2]) is listed as “A (percent of modification of PIK3CA protein ≥75%)”. Further, the IC50 in the assay with pAKT in BT474 cells (Compounds 10-999) was below 100 nM.

Consider `C=CC(=O)N1CCc2nc(-c3nc(N4CCC(N(C)C)CC4)c4ccsc4c3-c3ccc(F)cc3OCCOC)sc2C1` [Compound 175], for which the “% of modification” value in assay [1] (setting [2]) is listed as “A (percent of modification of PIK3CA protein ≥75%)”. Further, the IC50 with pAKT in BT474 cells (Compounds 10-999) is 100 to 1000 nM.

With `C=CC(=O)N1CCn2nc(-c3nc(-c4cn(C)cn4)c4ccsc4c3-c3c(F)cc(F)cc3OCCOC)cc2[C@@H]1C` [Compound 777], the “% of modification” value in assay [1] (setting [2]) is “A (percent of modification of PIK3CA protein ≥75%)”. Moreover, the 50% inhibitory concentration (IC50) with pAKT in BT474 cells (Compounds 10-999) is below 100 nM.

Turning to `C=CC(=O)N1CCn2nc(-c3nc(-c4cnn(C)c4)c4ccsc4c3-c3c(F)cc(F)cc3OC(C)C)cc2C1` [Compound 289], the “% of modification” value in assay [1] (setting [2]) is “A (percent of modification of PIK3CA protein ≥75%)”. The IC50 in the assay on pAKT in BT474 cells (Compounds 10-999) was below 100 nM.

As for `C=CC(=O)N1CCn2nc(-c3nc(-c4cnc(C)nc4)c4ccsc4c3-c3c(F)cc(F)cc3OCC(C)O)cc2C1C` (stereo not shown) [Compound 791], the “% of modification” value in assay [1] (setting [2]) is reported as “A (percent of modification of PIK3CA protein ≥75%)”. The half-maximal inhibitory concentration (IC50) in the assay with pAKT in BT474 cells (Compounds 10-999) was below 100 nM.

For the compound `C=CC(=O)N1Cc2cc(-c3nc(-c4cnnc(OCCN(C)C)c4)c4ccsc4c3-c3c(F)cc(F)cc3OCCOC)nn2C[C@H]1C` [Compound 884], the “% of modification” value in assay [1] (setting [3]) is “A (percent of modification of PIK3CA protein ≥75%)”. Besides, the IC50 in the assay with pAKT in BT474 cells (Compounds 10-999) was below 100 nM.

Regarding `C=CC(=O)N1CCn2nc(-c3nc(-c4ccc5c(c4)CN(C)CC5(F)F)c4ccsc4c3-c3c(F)cc(F)cc3OC)cc2C1C` (stereo not shown) [Compound 1275], the “% of modification” value in assay [1] (setting [3]) is listed as “A (percent of modification of PIK3CA protein ≥75%)”. Further, the concentration for half-maximal inhibition (IC50) in the assay on pAKT in BT474 cells (Compounds 1000-1279) is below 100 nM.

As for `C=CC(=O)N1CCn2nc(-c3nc(-c4ccc(N5CCN(C)CC5)nc4)c4ccsc4c3-c3c(F)cc(F)cc3OCCOC)cc2C1C` (stereo not shown) [Compound 1048], in assay [1] (setting [3]), the “% of modification” value is “A (percent of modification of PIK3CA protein ≥75%)”. Also, in the assay with pAKT in BT474 cells (Compounds 1000-1279), the IC50 is below 100 nM.

As to `C=CC(=O)N1CCn2nc(-c3nc(-c4cnc5c(c4)N(C)C(=O)C5)c4ccsc4c3-c3c(F)cc(F)cc3OCCOC)cc2C1C` (stereo not shown) [Compound 1058], the “% of modification” value in assay [1] (setting [3]) is given as “A (percent of modification of PIK3CA protein ≥75%)”. The half-inhibitory concentration (IC50) in the assay on pAKT in BT474 cells (Compounds 1000-1279) is below 100 nM.

On to `C=CC(=O)N1CCc2ncc(-c3nc(-c4ccc5c(c4)CN(C)C5=O)c4ccsc4c3-c3c(F)cc(F)cc3OCCOC)cc2C1` [Compound 402], for which, in assay [1] (setting [2]), the “% of modification” value was “A (percent of modification of PIK3CA protein ≥75%)”. Also, the concentration for half-maximal inhibition (IC50) with pAKT in BT474 cells (Compounds 10-999) was below 100 nM.

As to `C=CC(=O)N1CCn2nc(-c3nc(-c4cncc(Cl)c4)c4ccsc4c3-c3ccc(F)cc3OCCOC)cc2C1` [Compound 203], the “% of modification” value in assay [1] (setting [2]) is on record as “A (percent of modification of PIK3CA protein ≥75%)”. Moreover, the 50% inhibitory concentration (IC50) with pAKT in BT474 cells (Compounds 10-999) is below 100 nM.

In the case of `C=CC(=O)N1CCn2nc(-c3nc(-c4ccc5c(c4)CN(C)CC5)c4ccsc4c3-c3c(F)cc(F)cc3OCCOC)cc2C1C` (stereo not shown) [Compound 1104], the “% of modification” value in assay [1] (setting [3]) is “A (percent of modification of PIK3CA protein ≥75%)”. In addition, the half-maximal inhibitory concentration (IC50) in the assay with pAKT in BT474 cells (Compounds 1000-1279) was below 100 nM.

On to `C=CC(=O)N1CCn2nc(-c3nc(-c4cnn(C)c4)c(Cl)cc3-c3ccc(F)cc3OCCOC)cc2C1` [Compound 355, 1-[2-[5-chloro-3-[4-fluoro-2-(2-methoxyethoxy)phenyl]-6-(1-methylpyrazol-4-yl)-2-pyridyl]-6,7-dihydro-4H-pyrazolo[1,5-a]pyrazin-5-yl]prop-2-en-1-one], for which the “% of modification” value in assay [1] (setting [2]) is reported as “A (percent of modification of PIK3CA protein ≥75%)”. In addition, the IC50 with pAKT in BT474 cells (Homo sapiens, BT-474, Compounds 10-999) is above 3000 nM.
